Source: ChEMBL document CHEMBL5038615, “Discovery of a cinnamyl piperidine derivative as new neddylation inhibitor for gastric cancer treatment” (Eur J Med Chem, 2021)
Activity calls are given as the source filed them. No cut-off for these calls is given here.

Columns and labels:
MGC-803 [1] = test: Induction of apoptosis in human MGC-803 cells assessed as down-regulation of Keap1 expression at 2.5 to 7.5 uM measured after 24 hrs by Western blot assay; type: functional, cell-based; conditions: dose 2.5-7.5 µM
[2] = biological target: T1, NEDD8-activating enzyme E1 regulatory subunit (Homo sapiens) (UniProt Q13564); test: Inhibition of NAE-mediated neddylation in human MGC-803 cells assessed as cullin1-Nedd8 adduct formation at 2.5 to 7.5 uM measured after 24 hrs by western blot assay; type: cell-based; conditions: dose 2.5-7.5 µM
T1 sequence (whole entry): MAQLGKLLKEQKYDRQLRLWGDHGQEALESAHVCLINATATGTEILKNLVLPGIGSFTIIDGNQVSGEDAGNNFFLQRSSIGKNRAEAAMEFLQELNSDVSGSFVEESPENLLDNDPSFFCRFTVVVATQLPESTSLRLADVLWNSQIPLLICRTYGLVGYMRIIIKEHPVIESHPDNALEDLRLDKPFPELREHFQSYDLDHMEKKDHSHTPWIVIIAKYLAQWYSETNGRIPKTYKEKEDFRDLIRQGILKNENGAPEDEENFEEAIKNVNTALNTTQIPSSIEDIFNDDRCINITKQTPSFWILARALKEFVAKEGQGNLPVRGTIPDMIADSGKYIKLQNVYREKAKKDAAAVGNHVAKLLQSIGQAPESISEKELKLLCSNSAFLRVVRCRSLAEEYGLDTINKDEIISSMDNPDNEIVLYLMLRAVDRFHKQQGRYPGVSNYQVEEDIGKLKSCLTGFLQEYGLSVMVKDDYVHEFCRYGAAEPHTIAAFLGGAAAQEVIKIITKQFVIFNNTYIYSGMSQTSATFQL

HGC-27 [3] = test: Induction of apoptosis in human HGC-27 cells assessed as late apoptotic cells at 6 uM measured after 24 hrs by AnnexinV/FITC staining based flow cytometry method (reference value: 2.4%); type: functional
A549 = test: Antiproliferative activity against human A549 cells assessed as inhibition of cell proliferation measured after 72 hrs by MTT assay; type: functional, cell-based; conditions: A549, 72 h
MGC-803 [4] = test: Induction of apoptosis in human MGC-803 cells assessed as up-regulation of Nrf2 expression in cytoplasm at 2.5 to 7.5 uM measured after 24 hrs by Western blot assay; type: functional, cell-based; conditions: dose 2.5-7.5 µM
MGC-803 [5] = test: Induction of apoptosis in human MGC-803 cells assessed as late apoptotic cells at 2.5 uM measured after 48 hrs by AnnexinV/FITC staining based flow cytometry method (reference value: 0.9%); type: functional
MGC-803 [6] = test: Induction of apoptosis in human MGC-803 cells assessed as upregulation of Bax at 2.5 to 7.5 uM measured after 24 hrs by Western blot assay; type: functional, cell-based; conditions: dose 2.5-7.5 µM
MGC-803 [7] = test: Cell cycle arrest in human MGC-803 cells assessed as accumulation of cells at G2/M phase at 7.5 uM measured after 24 hrs by Flowcytometry assay (reference value: 13.71%); type: functional
[8] = Toxicity in NOD-SCID mouse xenografted with human MGC-803 cells assessed as change in body weight at 50 to 100 mg/kg/day, IG measured after 21 days; type: organism-based; conditions: in vivo, po, 504 h, dose 50-100 mg/kg/day, time 21 day
HGC-27 [9] = test: Induction of apoptosis in human HGC-27 cells assessed as early apoptotic cells at 9 uM measured after 48 hrs by AnnexinV/FITC staining based flow cytometry method (reference value: 5.8%); type: functional
HGC-27 [10] = test: Induction of apoptosis in human HGC-27 cells assessed as upregulation of Bak at 3 to 9 uM measured after 24 hrs by Western blot assay; type: functional, cell-based; conditions: dose 3-9 µM
HGC-27 [11] = test: Induction of apoptosis in human HGC-27 cells assessed as late apoptotic cells at 3 uM measured after 24 hrs by AnnexinV/FITC staining based flow cytometry method (reference value: 2.4%); type: functional
HGC-27 [12] = test: Induction of apoptosis in human HGC-27 cells assessed as downregulation of Bcl-2 at 3 to 9 uM measured after 24 hrs by Western blot assay; type: functional, cell-based; conditions: dose 3-9 µM
HGC-27 [13] = test: Induction of apoptosis in human HGC-27 cells assessed as necrotic cells at 3 uM measured after 48 hrs by AnnexinV/FITC staining based flow cytometry method (reference value: 0.1%); type: functional
MGC-803 [14] = test: Induction of apoptosis in human MGC-803 cells assessed as late apoptotic cells at 5 uM measured after 24 hrs by AnnexinV/FITC staining based flow cytometry method (reference value: 2%); type: functional
HGC-27 [15] = test: Induction of apoptosis in human HGC-27 cells assessed as early apoptotic cells at 3 uM measured after 24 hrs by AnnexinV/FITC staining based flow cytometry method (reference value: 0.7%); type: functional
HGC-27 [16] = test: Induction of apoptosis in human HGC-27 cells assessed as necrotic cells at 9 uM measured after 48 hrs by AnnexinV/FITC staining based flow cytometry method (reference value: 0.1%); type: functional
MGC-803 [17] = test: Antiproliferative activity against human MGC-803 cells assessed as inhibition of cell proliferation at 0.39 to 50 uM measured upto 72 hrs by MTT assay; type: functional, cell-based; conditions: dose 0.39-50 µM, time hrs <=72
HGC-27 [18] = test: Induction of apoptosis in human HGC-27 cells assessed as necrotic cells at 6 uM measured after 48 hrs by AnnexinV/FITC staining based flow cytometry method (reference value: 0.1%); type: functional
HGC-27 [19] = test: Antiproliferative activity against human HGC-27 cells assessed as cell survival at 7.5 uM preincubated with Z-VAD-FMK followed by compound addition and measured after 24 hrs by MTT assay; type: functional, cell-based
MGC-803 [20] = test: Inhibition of cell migration in human MGC-803 cells at 1.25 to 5 uM measured after 24 to 48 hrs by wound healing assay based inverted microscopic analysis; type: functional; conditions: dose 1.25-5 µM, time 24-48 hrs
MGC-803 [21] = test: Induction of apoptosis in human MGC-803 cells assessed as reduction of mitochondrial membrane potential at 7.5 uM measured after 24 hrs by JC-1 staining based Flowcytometry assay (reference value: 3.8%); type: functional; set-up: scale not given: the % may be the effect or the level left
MGC-803 [22] = test: Induction of apoptosis in human MGC-803 cells assessed as necrotic cells at 5 uM measured after 48 hrs by AnnexinV/FITC staining based flow cytometry method (reference value: 0.2%); type: functional
HGC-27 [23] = test: Induction of apoptosis in human HGC-27 cells assessed as viable cells at 3 uM measured after 24 hrs by AnnexinV/FITC staining based flow cytometry method (reference value: 95.7%); type: functional; conditions: read-out: Activity
MGC-803 [24] = test: Induction of apoptosis in human MGC-803 cells assessed as late apoptotic cells at 7.5 uM measured after 48 hrs by AnnexinV/FITC staining based flow cytometry method (reference value: 0.9%); type: functional
MGC-803 [25] = test: Induction of apoptosis in human MGC-803 cells assessed as upregulation of Bid at 2.5 to 7.5 uM measured after 24 hrs by Western blot assay; type: functional, cell-based; conditions: dose 2.5-7.5 µM
MGC-803 [26] = test: Induction of apoptosis in human MGC-803 cells assessed as down-regulation of Nrf2 expression in nucleus at 2.5 to 7.5 uM measured after 24 hrs by Western blot assay; type: functional, cell-based; conditions: dose 2.5-7.5 µM
[27] = biological target: T1, NEDD8-activating enzyme E1 regulatory subunit (Homo sapiens); test: Inhibition of NAE-mediated neddylation in human MGC-803 cells assessed as cullin4A-Nedd8 adduct formation at 2.5 to 7.5 uM measured after 24 hrs by western blot assay; type: cell-based; conditions: dose 2.5-7.5 µM

CCCCCc1ccc(NC(=O)C2CCN(C/C=C/c3ccccc3)CC2)cc1
Activity (MGC-803 [1]): Active
inhibition [2]: Active
Activity (HGC-27 [3]): 51.3%
IC50 (A549): 3.88 µM
Activity (MGC-803 [4]): Active
Activity (MGC-803 [5]): 43.5%
Activity (MGC-803 [6]): Dose-Dependent Effect
Activity (MGC-803 [7]): 25.94%
Activity [8]: Non-Toxic
Activity (HGC-27 [9]): 0.2%
Activity (HGC-27 [10]): Dose-Dependent Effect
Activity (HGC-27 [11]): 4.6%
Activity (HGC-27 [12]): Dose-Dependent Effect
Activity (HGC-27 [13]): 2.4%
Activity (MGC-803 [14]): 10.9%
Activity (HGC-27 [15]): 7.5%
Activity (HGC-27 [16]): 0%
Activity (MGC-803 [17]): Dose-Dependent Effect
Activity (HGC-27 [18]): 0.7%
Activity (HGC-27 [19]): Active
Activity (MGC-803 [20]): Dose-Dependent Effect
Activity (MGC-803 [21]): 70%
Activity (MGC-803 [22]): 0.8%
viability at 3 µM (HGC-27 [23]): 87.5%
Activity (MGC-803 [24]): 95.6%
Activity (MGC-803 [25]): Dose-Dependent Effect
Activity (MGC-803 [26]): Active
inhibition [27]: inactive
